Experimental data: patent US20260183253A1, “TREATING LIVER CANCERS WITH HYDROXYUREAMETHYL ACYLFULVENE” (Lantern Pharma Inc., priority 2023, published 2026)

Tested on: liver cancer cell lines including SNU387, SNU475, SNU449, and HEPG2
Test: Cell viability, CellTiter-Fluor assay, 72 h treatment
Assay type: cell-based
Details: values shown only in FIG. 1
Protocol: Liver cancer cell lines including SNU387, SNU475, SNU449, and HEPG2, were obtained from the American Type Culture Collection (ATCC), ensuring standardized and reliable cell sources. […] Cells were seeded into 96-well plates at a density optimized for exponential growth, allowing sufficient space for cellular proliferation during the course of the experiment. Each well was seeded with an equal number of cells to ensure consistency across the experiment. Following seeding, cells were allowed to adhere and acclimatize for 24 hours at 37° C. in a humidified incubator with 5% CO2, maintaining optimal growth conditions. Once acclimated, the cells were treated with either a vehicle control (DMSO) or varying concentrations of LP-184. […]
Following the 72-hour treatment period, cell viability was assessed using the CellTiter-Fluor® assay from Promega, a sensitive fluorescence-based assay that quantifies the number of viable cells based on the presence of active cellular proteases. […]
The plates were then incubated for an additional 30 minutes at 37° C. to allow the enzymatic reaction to occur, resulting in the cleavage of the fluorogenic substrate by viable cells. […] The fluorescence signal was measured using a plate reader set to an excitation wavelength of 400 nm and an emission wavelength of 505 nm, parameters optimized for the GF-AFC substrate. […]

CC1=C(CN(O)C(N)=O)C2=C(C)C3(CC3)[C@@](C)(O)C(=O)C2=C1 [LP-184, (−)-hydroxyureamethyl acylfulvene]
IC50 (nM) against various liver cancer cell lines: nanomolar potency
